Measured values as given in patent US20020026053A1, “Novel 3-(substituted) -2- indolinones compounds and use thereof as inhibitors of protein kinase activity” (priority 1997, published 2002).

Biological target: T1, Met receptor (EGFR/Met chimeric cells, EMR) (Homo sapiens, UniProt P08581)
T1 construct: expressed in transfected cells; the other entry of the earlier key: EGFR (P00533, Epidermal growth factor receptor)
Assay: Met Autophosphorylation Assay
Format: biochemical
Conditions: protocol P.130
How it was run: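 Transiently transfected EGFR/Met chimeric (EMR) cells were lysed in HNTG with 1 mM PMSF. Met was captured on plates coated with goat anti-rabbit IgG, then rabbit anti-Met (C-28), using 90 μg lysate/100 μl for 60 min at room temperature. Phosphotyrosine was read by ELISA.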

T1 sequence (P08581 with tags, fused parts or gaps): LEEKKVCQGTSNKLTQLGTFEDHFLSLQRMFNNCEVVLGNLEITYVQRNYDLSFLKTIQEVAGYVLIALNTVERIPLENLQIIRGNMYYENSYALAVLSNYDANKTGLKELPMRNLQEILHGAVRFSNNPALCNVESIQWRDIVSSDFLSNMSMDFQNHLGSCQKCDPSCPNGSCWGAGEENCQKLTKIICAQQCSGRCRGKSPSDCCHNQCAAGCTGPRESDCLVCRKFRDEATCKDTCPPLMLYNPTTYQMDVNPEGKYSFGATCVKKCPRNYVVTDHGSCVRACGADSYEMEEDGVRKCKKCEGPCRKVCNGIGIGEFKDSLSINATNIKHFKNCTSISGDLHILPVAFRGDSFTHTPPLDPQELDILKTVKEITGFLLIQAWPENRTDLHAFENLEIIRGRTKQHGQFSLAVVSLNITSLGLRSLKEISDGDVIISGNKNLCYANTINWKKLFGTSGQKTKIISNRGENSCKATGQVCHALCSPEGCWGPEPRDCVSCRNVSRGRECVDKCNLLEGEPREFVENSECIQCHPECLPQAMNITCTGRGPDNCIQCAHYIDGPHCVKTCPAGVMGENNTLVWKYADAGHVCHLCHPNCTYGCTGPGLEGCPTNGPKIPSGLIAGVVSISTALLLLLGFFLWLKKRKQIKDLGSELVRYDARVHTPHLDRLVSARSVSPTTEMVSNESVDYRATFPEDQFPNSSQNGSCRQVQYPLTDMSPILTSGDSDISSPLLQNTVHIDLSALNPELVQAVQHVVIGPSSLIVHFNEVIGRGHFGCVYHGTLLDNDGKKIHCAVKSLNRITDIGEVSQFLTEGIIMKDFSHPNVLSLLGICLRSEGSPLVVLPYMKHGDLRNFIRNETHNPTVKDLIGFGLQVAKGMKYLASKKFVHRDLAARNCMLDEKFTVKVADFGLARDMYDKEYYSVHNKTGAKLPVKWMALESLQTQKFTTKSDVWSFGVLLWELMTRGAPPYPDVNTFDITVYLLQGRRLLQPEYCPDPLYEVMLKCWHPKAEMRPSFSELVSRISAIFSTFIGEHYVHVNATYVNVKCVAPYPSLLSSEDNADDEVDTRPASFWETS

Row | SMILES | Met Kinase % Inhibition (P.130)
1 | Cc1c(Br)cc(Br)c2c1C(=Cc1cccc(F)c1)C(=O)N2 [10736/H07] | 31.0%
2 | Cc1c(Br)cc(Br)c2c1C(=Cc1ccccc1F)C(=O)N2 [10736/H08] | 33.4%
3 | CCc1ccc(C=C2C(=O)Nc3c(Br)cc(Br)c(C)c32)cc1 [10736/H09] | 32.1%
4 | COc1cccc(C=C2C(=O)Nc3c(Br)cc(Br)c(C)c32)c1 [10736/H10] | 32.1%
5 | Cc1c(Br)cc(Br)c2c1C(=Cc1ccccc1Cl)C(=O)N2 [10736/H11] | 41.5%
6 | CCOc1ccc(C=C2C(=O)Nc3c(Br)cc(Br)cc32)cc1 [10737/A02] | 53.2%
7 | Cc1ccc(C=C2C(=O)Nc3c(Br)cc(Br)cc32)c(C)c1 [10737/A03] | 58.9%
8 | O=C1Nc2c(Br)cc(Br)cc2C1=Cc1cc(F)ccc1F [10737/A04] | 63.5%
9 | O=C1Nc2c(Br)cc(Br)cc2C1=Cc1cccc(F)c1F [10737/A05] | 58.9%
10 | COc1ccc(C=C2C(=O)Nc3c(Br)cc(Br)cc32)cc1F [10737/A06] | 57.1%
11 | Cc1ccc(C)c(C=C2C(=O)Nc3c(Br)cc(Br)cc32)c1 [10737/A07] | 30.1%
12 | O=C1Nc2c(Br)cc(Br)cc2C1=Cc1ccc2ccccc2c1 [10737/A08] | 28.3%
13 | O=C1Nc2c(Br)cc(Br)cc2C1=Cc1ccc(Oc2ccccc2)cc1 [10737/A09] | 47.9%
14 | CC(C)(C)c1ccc(Oc2cccc(C=C3C(=O)Nc4c(Br)cc(Br)cc43)c2)cc1 [10737/A10] | 15.5%
15 | O=C1Nc2c(Br)cc(Br)cc2C1=Cc1cccc(Oc2cccc(C(F)(F)F)c2)c1 [10737/A11] | 25.3%
16 | CCOc1ccc(C=C2C(=O)Nc3ccc(I)cc32)cc1 [10737/B02] | 85.0%
17 | Cc1ccc(C=C2C(=O)Nc3ccc(I)cc32)c(C)c1 [10737/B03] | 86.3%
18 | O=C1Nc2ccc(I)cc2C1=Cc1cc(F)ccc1F [10737/B04] | 88.9%
19 | O=C1Nc2ccc(I)cc2C1=Cc1cccc(F)c1F [10737/B05] | 89.5%
20 | COc1ccc(C=C2C(=O)Nc3ccc(I)cc32)cc1F [10737/B06] | 84.7%
21 | Cc1ccc(C)c(C=C2C(=O)Nc3ccc(I)cc32)c1 [10737/B07] | 82.5%
22 | O=C1Nc2ccc(I)cc2C1=Cc1ccc2ccccc2c1 [10737/B08] | 84.1%
23 | O=C1Nc2ccc(I)cc2C1=Cc1ccc(Oc2ccccc2)cc1 [10737/B09] | 77.0%
24 | CC(C)(C)c1ccc(Oc2cccc(C=C3C(=O)Nc4ccc(I)cc43)c2)cc1 [10737/B10] | 84.7%
25 | O=C1Nc2ccc(I)cc2C1=Cc1cccc(Oc2cccc(C(F)(F)F)c2)c1 [10737/B11] | 78.8%
26 | CCOc1ccc(C=C2C(=O)Nc3ccc(Br)c(C)c32)cc1 [10737/C02] | 30.6%

Row | SMILES | Met Kinase % Inhibition (P.130)
27 | Cc1ccc(C=C2C(=O)Nc3ccc(Br)c(C)c32)c(C)c1 [10737/C03] | 52.5%
28 | Cc1c(Br)ccc2c1C(=Cc1cc(F)ccc1F)C(=O)N2 [10737/C04] | 82.0%
29 | Cc1c(Br)ccc2c1C(=Cc1cccc(F)c1F)C(=O)N2 [10737/C05] | 81.8%
30 | COc1ccc(C=C2C(=O)Nc3ccc(Br)c(C)c32)cc1F [10737/C06] | 38.6%
31 | Cc1ccc(C)c(C=C2C(=O)Nc3ccc(Br)c(C)c32)c1 [10737/C07] | 57.5%
32 | Cc1c(Br)ccc2c1C(=Cc1ccc3ccccc3c1)C(=O)N2 [10737/C08] | 54.1%
33 | Cc1c(Br)ccc2c1C(=Cc1ccc(Oc3ccccc3)cc1)C(=O)N2 [10737/C09] | 27.6%
34 | Cc1c(Br)ccc2c1C(=Cc1cccc(Oc3ccc(C(C)(C)C)cc3)c1)C(=O)N2 [10737/C10] | 60.0%
35 | Cc1c(Br)ccc2c1C(=Cc1cccc(Oc3cccc(C(F)(F)F)c3)c1)C(=O)N2 [10737/C11] | 34.0%
36 | CCOc1ccc(C=C2C(=O)Nc3ccc(S(=O)(=O)NC)cc32)cc1 [10737/D02] | 27.8%
37 | CNS(=O)(=O)c1ccc2c(c1)C(=Cc1ccc(C)cc1C)C(=O)N2 [10737/D03] | 38.6%
38 | CNS(=O)(=O)c1ccc2c(c1)C(=Cc1cc(F)ccc1F)C(=O)N2 [10737/D04] | 33.5%
39 | CNS(=O)(=O)c1ccc2c(c1)C(=Cc1cccc(F)c1F)C(=O)N2 [10737/D05] | 41.8%
40 | CNS(=O)(=O)c1ccc2c(c1)C(=Cc1ccc(OC)c(F)c1)C(=O)N2 [10737/D06] | 37.4%
41 | CNS(=O)(=O)c1ccc2c(c1)C(=Cc1cc(C)ccc1C)C(=O)N2 [10737/D07] | 37.0%
42 | CNS(=O)(=O)c1ccc2c(c1)C(=Cc1ccc3ccccc3c1)C(=O)N2 [10737/D08] | 42.0%
43 | CNS(=O)(=O)c1ccc2c(c1)C(=Cc1ccc(Oc3ccccc3)cc1)C(=O)N2 [10737/D09] | 36.0%
44 | CNS(=O)(=O)c1ccc2c(c1)C(=Cc1cccc(Oc3ccc(C(C)(C)C)cc3)c1)C(=O)N2 [10737/D10] | 24.8%
45 | CNS(=O)(=O)c1ccc2c(c1)C(=Cc1cccc(Oc3cccc(C(F)(F)F)c3)c1)C(=O)N2 [10737/D11] | 43.4%
46 | CCOc1ccc(C=C2C(=O)Nc3ccc(S(=O)(=O)Nc4ccc(C(F)(F)F)cc4)cc32)cc1 [10737/E02] | 53.0%
47 | Cc1ccc(C=C2C(=O)Nc3ccc(S(=O)(=O)Nc4ccc(C(F)(F)F)cc4)cc32)c(C)c1 [10737/E03] | 13.4%
48 | O=C1Nc2ccc(S(=O)(=O)Nc3ccc(C(F)(F)F)cc3)cc2C1=Cc1cc(F)ccc1F [10737/E04] | 79.3%
49 | O=C1Nc2ccc(S(=O)(=O)Nc3ccc(C(F)(F)F)cc3)cc2C1=Cc1cccc(F)c1F [10737/E05] | 80.9%
50 | COc1ccc(C=C2C(=O)Nc3ccc(S(=O)(=O)Nc4ccc(C(F)(F)F)cc4)cc32)cc1F [10737/E06] | 57.8%
51 | Cc1ccc(C)c(C=C2C(=O)Nc3ccc(S(=O)(=O)Nc4ccc(C(F)(F)F)cc4)cc32)c1 [10737/E07] | 43.1%
52 | O=C1Nc2ccc(S(=O)(=O)Nc3ccc(C(F)(F)F)cc3)cc2C1=Cc1ccc2ccccc2c1 [10737/E08] | 61.9%

Row | SMILES | Met Kinase % Inhibition (P.130)
53 | O=C1Nc2ccc(S(=O)(=O)Nc3ccc(C(F)(F)F)cc3)cc2C1=Cc1ccc(Oc2ccccc2)cc1 [10737/E09] | 21.2%
54 | CC(C)(C)c1ccc(Oc2cccc(C=C3C(=O)Nc4ccc(S(=O)(=O)Nc5ccc(C(F)(F)F)cc5)cc43)c2)cc1 [10737/E10] | 49.3%
55 | O=C1Nc2ccc(S(=O)(=O)Nc3ccc(C(F)(F)F)cc3)cc2C1=Cc1cccc(Oc2cccc(C(F)(F)F)c2)c1 [10737/E11] | 24.8%
56 | CCOc1ccc(C=C2C(=O)Nc3ccc(S(=O)(=O)N4CCOCC4)cc32)cc1 [10737/F02] | 67.4%
57 | Cc1ccc(C=C2C(=O)Nc3ccc(S(=O)(=O)N4CCOCC4)cc32)c(C)c1 [10737/F03] | 28.0%
58 | O=C1Nc2ccc(S(=O)(=O)N3CCOCC3)cc2C1=Cc1cc(F)ccc1F [10737/F04] | 62.8%
59 | O=C1Nc2ccc(S(=O)(=O)N3CCOCC3)cc2C1=Cc1cccc(F)c1F [10737/F05] | 67.1%
60 | COc1ccc(C=C2C(=O)Nc3ccc(S(=O)(=O)N4CCOCC4)cc32)cc1F [10737/F06] | 62.8%
61 | Cc1ccc(C)c(C=C2C(=O)Nc3ccc(S(=O)(=O)N4CCOCC4)cc32)c1 [10737/F07] | 33.3%
62 | O=C1Nc2ccc(S(=O)(=O)N3CCOCC3)cc2C1=Cc1ccc2ccccc2c1 [10737/F08] | 76.1%
63 | O=C1Nc2ccc(S(=O)(=O)N3CCOCC3)cc2C1=Cc1ccc(Oc2ccccc2)cc1 [10737/F09] | 76.5%
64 | CC(C)(C)c1ccc(Oc2cccc(C=C3C(=O)Nc4ccc(S(=O)(=O)N5CCOCC5)cc43)c2)cc1 [10737/F10] | 78.6%
65 | O=C1Nc2ccc(S(=O)(=O)N3CCOCC3)cc2C1=Cc1cccc(Oc2cccc(C(F)(F)F)c2)c1 [10737/F11] | 75.6%
66 | CCOc1ccc(C=C2C(=O)Nc3ccc(CCCl)cc32)cc1 [10737/G02] | 32.2%
67 | Cc1ccc(C=C2C(=O)Nc3ccc(CCCl)cc32)c(C)c1 [10737/G03] | 37.4%
68 | O=C1Nc2ccc(CCCl)cc2C1=Cc1cc(F)ccc1F [10737/G04] | 49.1%
69 | O=C1Nc2ccc(CCCl)cc2C1=Cc1cccc(F)c1F [10737/G05] | 53.2%
70 | COc1ccc(C=C2C(=O)Nc3ccc(CCCl)cc32)cc1F [10737/G06] | 50.7%
71 | Cc1ccc(C)c(C=C2C(=O)Nc3ccc(CCCl)cc32)c1 [10737/G07] | 41.8%
72 | O=C1Nc2ccc(CCCl)cc2C1=Cc1ccc2ccccc2c1 [10737/G08] | 31.2%
73 | O=C1Nc2ccc(CCCl)cc2C1=Cc1ccc(Oc2ccccc2)cc1 [10737/G09] | 37.9%
74 | CC(C)(C)c1ccc(Oc2cccc(C=C3C(=O)Nc4ccc(CCCl)cc43)c2)cc1 [10737/G10] | 22.8%
75 | O=C1Nc2ccc(CCCl)cc2C1=Cc1cccc(Oc2cccc(C(F)(F)F)c2)c1 [10737/G11] | 35.1%
76 | CCOc1ccc(C=C2C(=O)Nc3c(Br)cc(Br)c(C)c32)cc1 [10737/H02] | 42.9%
77 | Cc1ccc(C=C2C(=O)Nc3c(Br)cc(Br)c(C)c32)c(C)c1 [10737/H03] | 46.1%
